One assay concerns the target Cathepsin S (UniProt P25774). Briefly: Cathepsin enzyme inhibition assay (fluorogenic peptide substrate Z-Val-Val-Arg-AMC), Cathepsin S. Type of assay: biochemical, human and mouse. Particulars: enzyme 1 nM, substrate 20 μM, pH 6.5; read-out: CatS IC50. The method, boiled down:
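Compounds were combined with 1 nM human or mouse enzyme, and substrate then started the reaction. The buffer was potassium phosphate (100 mM, pH 6.5) containing EDTA-Na 5 mM, Triton X-100 0.001% and […] 5 mM.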

A further assay has as its target Cat L (UniProt P07711). Nature of the assay: Cathepsin enzyme inhibition assay (fluorogenic peptide substrate Z-Val-Val-Arg-AMC), Cathepsin L. The assay is classed as biochemical, human and mouse. The conditions noted are these: enzyme 1 nM, substrate 20 μM, pH 6.5; read-out: CatL IC50. An outline of the steps:
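Fluorogenic cleavage of Z-Val-Val-Arg-AMC (20 μM) by 1 nM Cat L was monitored at ex 360/em 465 nm for 20 min, the linear phase. The buffer was 100 mM potassium phosphate pH 6.5 with 5 mM EDTA and DTT. IC50 values were derived by standard methods, in μM.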

Where a name gives a salt, the structure may show the parent alone.

`CC(C)CC(=O)N1C[C@H](S(=O)(=O)c2ccc(Cl)cc2Cl)C[C@H]1C(=O)NC1(C#N)CC1` [Example 228, (2S,4R)-4-(2,4-Dichloro-benzenesulfonyl)-1-(3-methyl-butyryl)-pyrrolidine-2-carboxylic acid (1-cyano-cyclopropyl)-amide]: the values for the IC50 at Cathepsin S and on Cat L were 0.9 nM and 15400 nM, respectively.

As for `N#CC1(NC(=O)[C@@H]2C[C@@H](S(=O)(=O)c3ccccc3C(F)(F)F)CN2C(=O)C2CCCCC2)CC1` [Example 104, (2S,4R)-1-Cyclohexanecarbonyl-4-(2-trifluoromethyl-benzenesulfonyl)-pyrrolidine-2-carboxylic acid (1-cyano-cyclopropyl)-amide], the concentration for half-maximal inhibition (IC50) on Cathepsin S is 0.2 nM; on Cat L it was ≥ 25000 nM.

With `COc1ccc(S(=O)(=O)[C@@H]2C[C@@H](C(=O)NC3(C#N)CC3)N(c3cc(C)nn3C3CCC3)C2)c(Cl)c1` [Example 375, (2S,4R)-4-(2-Chloro-4-methoxy-benzenesulfonyl)-1-(2-cyclobutyl-5-methyl-2H-pyrazol-3-yl)-pyrrolidine-2-carboxylic acid (1-cyano-cyclopropyl)-amide], the IC50 on Cathepsin S stood at 0.29 nM; at Cat L it was 5370 nM.

Take `CC(C)(C)OC(=O)N1C[C@H](S(=O)(=O)c2ccc(-n3ccnc3)cc2)C[C@H]1C(=O)NC1(C#N)CC1` [Example 3, (2S,4R)-2-(1-Cyano-cyclopropylcarbamoyl)-4-(4-imidazol-1-yl-benzenesulfonyl)-pyrrolidine-1-carboxylic acid tert-butyl ester]: the IC50 on Cathepsin S was 11 nM; at Cat L, ≥ 25000 nM.

Regarding `CC(C#N)(NC(=O)[C@@H]1C[C@@H](S(=O)(=O)c2ccccc2Cl)CN1)c1ccccc1` (stereo partly drawn) [Example 48, (2S,4R)-4-(2-Chloro-benzenesulfonyl)-pyrrolidine-2-carboxylic acid (cyano-methyl-phenyl-methyl)-amide Hydrochloride], the results for the concentration for half-maximal inhibition (IC50) at Cathepsin S and on Cat L were 235 nM and ≥ 25000 nM, respectively.

Consider `COCCN1C[C@H](S(=O)(=O)c2ccccc2C(F)(F)F)C[C@H]1C(=O)NC1(C#N)CC1` [Example 110, (2S,4R)-1-(2-Methoxy-ethyl)-4-(2-trifluoromethyl-benzenesulfonyl)-pyrrolidine-2-carboxylic Acid (1-cyano-cyclopropyl)-amide], for which the half-inhibitory concentration (IC50) at Cathepsin S was 60.5 nM; at Cat L, ≥ 25000 nM.

Take `COCCOc1ccc(S(=O)(=O)[C@@H]2C[C@@H](C(=O)NC3(C#N)CC3)N(c3cc(C)nn3C3CCOCC3)C2)c(Cl)c1` [Example 488, (2S,4R)-4-[2-Chloro-4-(2-methoxy-ethoxy)-benzenesulfonyl]-1-[5-methyl-2-(tetrahydro-pyran-4-yl)-2H-pyrazol-3-yl]-pyrrolidine-2-carboxylic acid (1-cyano-cyclopropyl)-amide]: the IC50 at Cathepsin S was found to be 2.5 nM; on Cat L, 3880 nM.

Take `CC(Oc1ccc(S(=O)(=O)[C@@H]2C[C@@H](C(=O)NC3(C#N)CC3)N(C(=O)C3(C(F)(F)F)CC3)C2)c(Cl)c1)C(F)(F)F` (stereo partly drawn) [Example 149, (2S,4R)-4-[2-Chloro-4-(2,2,2-trifluoro-1-methyl-ethoxy)-benzenesulfonyl]-1-(1-trifluoromethyl-cyclopropanecarbonyl)-pyrrolidine-2-carboxylic acid (1-cyano-cyclopropyl)-amide]: the figures for the half-maximal inhibitory concentration (IC50) at Cathepsin S and at Cat L were 0.7 nM and 8100 nM, respectively.

For `CCN1CCN(c2ccc(S(=O)(=O)[C@@H]3C[C@H](C(=O)NC4(C#N)CC4)N(c4ncccc4C(F)(F)F)C3)c(Cl)c2)CC1` [Example 191, (2R,4R)-4-[2-Chloro-4-(4-ethyl-piperazin-1-yl)-benzenesulfonyl]-1-(3-trifluoromethyl-pyridin-2-yl)-pyrrolidine-2-carboxylic acid (1-cyano-cyclopropyl)-amide], the half-maximal inhibitory concentration (IC50) on Cathepsin S was 107 nM; on Cat L it was ≥ 25000 nM.

Take `Cc1cc(N2C[C@H](S(=O)(=O)c3ccc(OCC(F)(F)F)cc3C(F)(F)F)C[C@@H]2C(=O)NC2(C#N)CC2)n(C2CCC2)n1` [Example 392, (2R,4R)-1-(2-Cyclobutyl-5-methyl-2H-pyrazol-3-yl)-4-[4-(2,2,2-trifluoro-ethoxy)-2-trifluoromethyl-benzenesulfonyl]-pyrrolidine-2-carboxylic acid (1-cyano-cyclopropyl)-amide]: the IC50 on Cathepsin S is 0.91 nM; on Cat L, ≥ 25000 nM.

As for `Cc1cc(N2C[C@H](S(=O)(=O)c3ccc(-n4cccn4)cc3Cl)C[C@H]2C(=O)NC2(C#N)CC2)n(C2CCOCC2)n1` [Example 490], the half-maximal inhibitory concentration (IC50) came to 0.94 nM on Cathepsin S and 4330 nM on Cat L.

`Cc1cc(N2C[C@H](S(=O)(=O)c3ccccc3C(F)(F)F)C[C@H]2C(=O)NC2(C#N)CC2)n(-c2cc[nH]c(=O)c2)n1` [Example 196, (2S,4R)-1-[5-Methyl-2-(2-oxo-1,2-dihydro-pyridin-4-yl)-2H-pyrazol-3-yl]-4-(2-trifluoromethyl-benzenesulfonyl)-pyrrolidine-2-carboxylic acid (1-cyano-cyclopropyl)-amide]: the IC50 on Cathepsin S stood at 0.3 nM; at Cat L, 41400 nM.

In the case of `CC(=O)N1C[C@H](S(=O)(=O)c2ccc(-n3cccn3)cc2C(F)(F)F)C[C@H]1C(=O)NC1(C#N)CC1` [Example 111, (2S,4R)-1-Acetyl-4-(4-pyrazol-1-yl-2-trifluoromethyl-benzenesulfonyl)-pyrrolidine-2-carboxylic acid (1-cyano-cyclopropyl)-amide], the figures for the IC50 at Cathepsin S and at Cat L were 0.7 nM and ≥ 25000 nM, respectively.

`N#CC1(NC(=O)[C@@H]2C[C@@H](S(=O)(=O)c3ccc(OCC(F)(F)F)cc3Cl)CN2C(=O)C2(c3cccc4ccccc34)CC2)CC1` [Example 347, (2S,4R)-4-[2-Chloro-4-(2,2,2-trifluoro-ethoxy)-benzenesulfonyl]-1-(1-naphthalen-1-yl-cyclopropanecarbonyl)-pyrrolidine-2-carboxylic acid (1-cyano-cyclopropyl)-amide]: the IC50 came out at 0.855 nM at Cathepsin S and 60 nM at Cat L.

Consider `Cc1cc(N2C[C@H](S(=O)(=O)c3ccc(-c4ccnn4C)cc3C(F)(F)F)C[C@H]2C(=O)NC2(C#N)CC2)n(C2CCC2)n1` [Example 420, (2S,4R)—N-(1-cyanocyclopropyl)-1-(1-cyclobutyl-3-methyl-1H-pyrazol-5-yl)-4-(4-(1-methyl-1H-pyrazol-5-yl)-2-(trifluoromethyl)phenylsulfonyl)pyrrolidine-2-carboxamide], for which the half-maximal inhibitory concentration (IC50) at Cathepsin S came to 0.395 nM; on Cat L, 14000 nM.

As for `N#CC1(NC(=O)[C@@H]2C[C@@H](S(=O)(=O)c3ccc(-n4ccc5ncnc-5c4)cc3Cl)CN2C(=O)C2(c3ccc(Cl)cc3)CC2)CC1` [Example 350, (2S,4R)-4-(2-Chloro-4-imidazo[4,5-c]pyridin-5-yl-benzenesulfonyl)-1-[1-(4-chloro-phenyl)-cyclopropanecarbonyl]-pyrrolidine-2-carboxylic acid (1-cyano-cyclopropyl)-amide], the half-inhibitory concentration (IC50) on Cathepsin S came out at 0.06 nM; at Cat L it was 260 nM.

For `N#CC1(NC(=O)[C@@H]2C[C@@H](S(=O)(=O)c3ccc(Cl)cc3Cl)CN2)CC1` [Example 15, (2S,4R)-4-(2,4-Dichloro-benzenesulfonyl)-pyrrolidine-2-carboxylic acid (1-cyano-cyclopropyl)-amide Hydrochloride], the concentration for half-maximal inhibition (IC50) on Cathepsin S amounted to 4.5 nM; on Cat L, 4920 nM.

In general, IC50 refers to the point on the concentration scale where inhibition reaches its midpoint.
